Measured values reported in PubChem BioAssay (NCI).
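Cultured in 96-well plates, cells were exposed to test compound for 48 hours across five concentrations. Here, GI50 denotes the concentration required for 50% inhibition of growth. TGI marks complete inhibition of growth.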

Assays:
Experiment in all cases: NCI tumour cell line growth inhibition, 48 h
OVCAR-4 ovarian = test system: OVCAR-4 ovarian
OVCAR-3 ovarian = test system: OVCAR-3 ovarian
ACHN renal = test system: ACHN renal
SF-539 CNS = test system: SF-539 CNS
HCT-15 colon = test system: HCT-15 colon
TK-10 renal = test system: TK-10 renal
NCI-H522 lung = test system: NCI-H522 lung
COLO 205 colon = test system: COLO 205 colon
SN12C renal = test system: SN12C renal
CAKI-1 renal = test system: CAKI-1 renal

| Compound | TGI (OVCAR-4 ovarian) [µM] | TGI (OVCAR-3 ovarian) [µM] | TGI (ACHN renal) [µM] | GI50 (SF-539 CNS) [µM] | TGI (SF-539 CNS) [µM] | TGI (HCT-15 colon) [µM] | GI50 (TK-10 renal) [µM] | TGI (TK-10 renal) [µM] | TGI (NCI-H522 lung) [µM] | TGI (COLO 205 colon) [µM] | TGI (SN12C renal) [µM] | TGI (CAKI-1 renal) [µM] | GI50 (SN12C renal) [µM] | GI50 (OVCAR-4 ovarian) [µM] | GI50 (OVCAR-3 ovarian) [µM] | GI50 (HCT-15 colon) [µM] | GI50 (CAKI-1 renal) [µM] | GI50 (NCI-H522 lung) [µM] | GI50 (COLO 205 colon) [µM] | GI50 (ACHN renal) [µM] |
| --- | --- | --- | --- | --- | --- | --- | --- | --- | --- | --- | --- | --- | --- | --- | --- | --- | --- | --- | --- | --- |
| COc1cc(CNc2nc3c(N)cc(C(F)(F)F)cc3nc2-c2ccccc2)cc(OC)c1OC | > 100 | > 100 | > 100 | > 100 | > 100 | > 100 | > 100 | > 100 | 78.5 | > 100 | > 100 |  |  |  |  |  |  |  |  |  |
| N#CC(CCN1CCC(Nc2ccccc2)(c2nnnn2C2CCCCC2)CC1)(c1ccccc1)c1ccccc1 | > 100 | > 100 | > 100 |  | > 100 | > 100 |  | > 100 | > 100 | > 100 | > 100 |  |  |  |  |  |  |  |  |  |
| N#C/C(=C/C=C/c1ccco1)C(N)=O |  | > 10 | > 10 |  | > 10 | > 10 |  | > 10 | > 10 | > 10 | > 10 | > 10 |  |  |  |  |  |  |  |  |
| O=c1cccccc1[O-].O=c1cccccc1[O-].O=c1cccccc1[O-].[Eu+3] | > 100 | 48.1 | > 100 | 30.2 | > 100 | > 100 |  | > 100 | 54.8 |  | > 100 | > 100 | 56.6 |  |  |  |  |  |  |  |
| O=c1c2c([nH]c3nccn13)CCC2 | > 10 | > 10 | > 10 |  | > 10 | > 10 |  | > 10 |  | > 10 | > 10 | > 10 |  |  |  |  |  |  |  |  |
| COC(=O)c1c2c(c(C)[n+]([O-])c1C)C(=O)C=C(NCc1ccccc1)C2=O | 1.18 | 0.791 |  | 0.711 | 1.94 | 1.8 | 2.92 | 7.19 | 3.25 | 0.776 | 1.39 | 3.1 | 0.356 | 0.283 | 0.277 | 0.426 | 1.09 | 1.33 | 0.274 |  |
| COC(C)(C)[C@@H](O)[C@H](O)C[C@H](C)C1=C2CC[C@@H]3[C@@]4(C)CC[C@@H](OC(C)=O)C(C)(C)[C@@H]4C[C@@H](OC4OC(COC(C)=O)C(O)C(O)C4O)[C@@]3(C)[C@]2(C)CC1 (stereo partly specified) | 23.1 | 21.1 | 22.2 |  |  | 23.8 |  |  | 25.2 | 22.8 | 26.4 | 14.8 | 13.4 | 10.8 | 7.37 | 11 | 4.1 | 12.2 | 10.6 | 10.4 |
| COc1ccc2c(c1)[n+](=O)c(C(=O)c1cccs1)c(C(F)(F)F)n2[O-] | > 50 | 11.3 | > 50 | 5.1 | 16.2 |  | 1.07 | 8.77 | 12.8 | > 50 | 10.4 | 11.7 | 2.18 | 16.8 | 2.09 |  | 2.87 | 2 | 7.49 | 8.64 |
| Cc1ccc(/C=C(\C#N)c2cc3ccccc3n2C)cc1 |  |  | > 100 | 0.294 | 1.02 | > 100 | > 100 | > 100 | 16.2 | > 43.5 | > 100 | > 100 | 0.614 |  | 0.361 | 0.303 | 0.406 | 0.269 | 0.41 | 0.783 |
| O=c1[nH]c(=O)n(C2CC(O)C(CO)O2)cc1Oc1ccccc1 (stereo unspecified) | > 100 | > 100 | > 100 |  |  | > 100 |  | > 100 | > 100 | > 100 | > 100 | > 100 |  |  |  |  |  |  |  |  |
| O=c1cc(-c2ccccn2)[nH]c2cccc(F)c12 | > 100 | > 100 | > 100 |  | > 100 |  |  | > 100 | > 100 | > 100 | > 100 |  |  |  |  |  |  |  |  |  |
| COc1cc2c(cc1OC)C(C(=O)O)C(c1ccccc1)N(C)C2=O (stereo unspecified) | > 100 | > 100 | > 100 |  | > 100 |  |  | > 100 | > 100 | > 100 | > 100 | > 100 |  |  |  |  |  |  |  |  |
| O=C(Oc1cccc(Cl)c1)c1ccccc1Nc1ccnc(C(F)(F)F)c1 |  | 18.1 |  | 2.79 | 7.24 |  | 85 | > 100 | 41.1 |  | 6.18 | 4.1 | 2.92 |  | 3.8 |  | 2.13 | 4.21 |  |  |
| COc1ccc2c(c1)/C(=C\c1ccncc1)C(=O)N2 |  | 27.5 | 15.9 | 2.98 | 11.4 | 13.1 | 15.1 | 30.5 | 9.18 | 44.7 | 23.7 | 15.9 | 10.3 |  | 10.4 | 2.97 | 3.64 | 4 | 11.9 | 4.41 |
| CCOC(=O)NC(=O)c1cn(CCN2CCN(C(=O)CNC(=O)CNC(=O)Cn3cc(C(=O)NC(=O)OCC)c(=O)[nH]c3=O)CC2)c(=O)[nH]c1=O |  | > 100 | > 100 |  | > 100 | > 100 |  | > 100 | > 100 | > 100 | > 100 | > 100 |  |  |  |  |  |  |  |  |
| C/C(CC(=O)Nc1cccc(Cl)c1C)=N\NC(N)=S |  | > 100 |  |  | > 100 |  |  | > 100 | > 100 | > 100 |  |  |  |  |  |  |  |  |  |  |
| COC1C(OC(=O)c2ccc(C)[nH]2)C(O)C(Oc2ccc3c(O)c(NC(=O)c4c[nH]c(C(=O)Nc5c(O)c6ccc(OC7OC(C)(C)C(OC)C(OC(=O)c8ccc(C)[nH]8)C7O)c(C)c6oc5=O)c4C)c(=O)oc3c2C)OC1(C)C (stereo unspecified) | 6.82 | 41.1 | 9.43 |  |  | 7.06 |  | 37.3 |  | 4.38 | 7.16 | 6.08 |  |  |  |  |  |  |  |  |
| O=C(O)C(Cc1cnc[nH]1)N1C(=O)c2ccccc2C1=O (stereo unspecified) | > 100 | > 100 | > 100 |  |  | > 100 |  | > 100 | > 100 | > 100 | > 100 | > 100 |  |  |  |  |  |  |  |  |
| Cc1ccc(/C=C/c2c(C(=O)/C=C/c3ccccc3)c(C)nc3ccccc23)cc1 | 7.72 | 2.88 | 2.93 | 1.74 | 3.19 | 3.24 |  |  | 3.29 | 3.67 | 3.85 |  | 1.87 | 2.19 | 1.51 | 1.32 |  | 1.4 | 1.6 | 1.59 |
